Results as given in PMC7026418, “The kinase polypharmacology landscape of clinical PARP inhibitors” (Scientific Reports, 2020).
Like-named read-outs stand apart in the source and are kept apart here.

Tests used:
Experiment in all cases: biochemical
Parameters in all cases: DiscoveRx KINOMEscan active site-directed competition binding; percent of control kinase bound to immobilised ligand
PKN1 = PKN1 (Homo sapiens, UniProt Q16512)
HUNK = target: T1, HUNK (Homo sapiens, UniProt P57058)
T1 sequence (P57058 1-714): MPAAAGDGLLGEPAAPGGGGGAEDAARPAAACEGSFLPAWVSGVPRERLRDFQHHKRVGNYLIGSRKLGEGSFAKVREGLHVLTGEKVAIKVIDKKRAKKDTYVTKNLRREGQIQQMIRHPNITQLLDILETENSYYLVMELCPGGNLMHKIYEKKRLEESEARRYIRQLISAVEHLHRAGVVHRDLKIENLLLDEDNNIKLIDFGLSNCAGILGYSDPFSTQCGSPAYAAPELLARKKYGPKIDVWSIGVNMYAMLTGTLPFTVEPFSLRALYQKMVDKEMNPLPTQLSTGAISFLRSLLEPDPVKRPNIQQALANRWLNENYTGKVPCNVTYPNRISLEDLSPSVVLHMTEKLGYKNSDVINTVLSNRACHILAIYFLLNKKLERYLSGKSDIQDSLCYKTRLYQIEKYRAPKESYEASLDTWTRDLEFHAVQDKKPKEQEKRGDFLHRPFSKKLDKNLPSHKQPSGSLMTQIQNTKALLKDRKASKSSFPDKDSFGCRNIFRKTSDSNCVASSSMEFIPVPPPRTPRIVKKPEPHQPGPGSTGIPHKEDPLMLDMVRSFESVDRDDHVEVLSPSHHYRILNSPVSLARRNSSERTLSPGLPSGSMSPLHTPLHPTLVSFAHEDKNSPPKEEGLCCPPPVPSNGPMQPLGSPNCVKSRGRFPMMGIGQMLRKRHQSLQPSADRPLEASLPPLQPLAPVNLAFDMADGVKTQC

CDK4-cyclinD1 = target: T2, CDK4-cyclinD1 (Homo sapiens, UniProt P11802)
T2 construct: cyclinD1

CSNK2A2 = CSNK2A2 (Homo sapiens, UniProt P19784)
PKAC-alpha = target: T3, PKAC-alpha (Homo sapiens, UniProt P17612)
T3 construct: gene PRKACA

PIK3CA(E545K) = PIK3CA(E545K) (Homo sapiens, UniProt P42336, E545K)
FLT3(D835H) = target: T4, FLT3(D835H) (Homo sapiens, UniProt P36888, D835H)
T4 sequence (P36888 1-993 D835H): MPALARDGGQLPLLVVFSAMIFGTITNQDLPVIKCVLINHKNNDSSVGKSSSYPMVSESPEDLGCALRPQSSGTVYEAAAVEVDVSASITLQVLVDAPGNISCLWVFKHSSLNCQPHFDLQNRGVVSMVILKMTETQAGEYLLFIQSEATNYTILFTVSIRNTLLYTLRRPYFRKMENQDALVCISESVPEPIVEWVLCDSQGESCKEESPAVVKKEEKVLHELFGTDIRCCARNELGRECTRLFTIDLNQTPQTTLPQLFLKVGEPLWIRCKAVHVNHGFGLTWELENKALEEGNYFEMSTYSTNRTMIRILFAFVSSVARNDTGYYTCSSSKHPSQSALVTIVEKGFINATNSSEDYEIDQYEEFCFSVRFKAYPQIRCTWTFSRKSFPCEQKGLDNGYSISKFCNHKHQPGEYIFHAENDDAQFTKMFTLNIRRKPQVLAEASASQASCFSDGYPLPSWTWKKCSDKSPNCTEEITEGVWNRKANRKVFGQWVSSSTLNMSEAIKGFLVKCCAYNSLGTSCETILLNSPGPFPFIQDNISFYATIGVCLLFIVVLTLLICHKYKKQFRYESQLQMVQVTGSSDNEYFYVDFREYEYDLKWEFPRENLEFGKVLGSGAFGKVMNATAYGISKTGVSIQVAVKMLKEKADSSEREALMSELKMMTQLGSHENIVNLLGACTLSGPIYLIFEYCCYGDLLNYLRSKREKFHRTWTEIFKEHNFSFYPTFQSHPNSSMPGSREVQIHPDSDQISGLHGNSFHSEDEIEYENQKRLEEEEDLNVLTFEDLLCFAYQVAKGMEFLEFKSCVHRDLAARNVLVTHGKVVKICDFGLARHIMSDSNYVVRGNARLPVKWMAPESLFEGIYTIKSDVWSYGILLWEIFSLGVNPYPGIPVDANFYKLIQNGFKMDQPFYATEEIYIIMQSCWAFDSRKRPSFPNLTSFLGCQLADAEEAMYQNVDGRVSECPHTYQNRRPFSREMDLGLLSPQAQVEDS

SgK110 = target: T5, SgK110 (Homo sapiens, UniProt P0C264)
T5 construct: gene SBK3
T5 sequence (P0C264 1-359): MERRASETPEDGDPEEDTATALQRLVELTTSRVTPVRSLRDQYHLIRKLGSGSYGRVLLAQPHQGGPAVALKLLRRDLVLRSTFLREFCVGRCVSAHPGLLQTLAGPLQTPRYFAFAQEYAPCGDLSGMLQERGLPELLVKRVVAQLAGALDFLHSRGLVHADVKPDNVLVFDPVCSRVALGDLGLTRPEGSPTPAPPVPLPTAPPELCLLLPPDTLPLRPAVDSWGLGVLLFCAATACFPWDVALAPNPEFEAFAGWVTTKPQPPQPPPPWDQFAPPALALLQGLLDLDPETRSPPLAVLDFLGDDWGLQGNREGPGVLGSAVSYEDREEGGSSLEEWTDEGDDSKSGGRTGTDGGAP

[1] = read-out: Niraparib (MK-4827) / %Ctrl @ 10000nM
[2] = read-out: Olaparib / %Ctrl @ 10000nM
[3] = read-out: Rucaparib / %Ctrl @ 10000nM, binding competition, % of control
[4] = read-out: Talazoparib (BMN 673) / %Ctrl @ 10000nM

Sequence of PIK3CA(E545K) (P42336 whole entry E545K): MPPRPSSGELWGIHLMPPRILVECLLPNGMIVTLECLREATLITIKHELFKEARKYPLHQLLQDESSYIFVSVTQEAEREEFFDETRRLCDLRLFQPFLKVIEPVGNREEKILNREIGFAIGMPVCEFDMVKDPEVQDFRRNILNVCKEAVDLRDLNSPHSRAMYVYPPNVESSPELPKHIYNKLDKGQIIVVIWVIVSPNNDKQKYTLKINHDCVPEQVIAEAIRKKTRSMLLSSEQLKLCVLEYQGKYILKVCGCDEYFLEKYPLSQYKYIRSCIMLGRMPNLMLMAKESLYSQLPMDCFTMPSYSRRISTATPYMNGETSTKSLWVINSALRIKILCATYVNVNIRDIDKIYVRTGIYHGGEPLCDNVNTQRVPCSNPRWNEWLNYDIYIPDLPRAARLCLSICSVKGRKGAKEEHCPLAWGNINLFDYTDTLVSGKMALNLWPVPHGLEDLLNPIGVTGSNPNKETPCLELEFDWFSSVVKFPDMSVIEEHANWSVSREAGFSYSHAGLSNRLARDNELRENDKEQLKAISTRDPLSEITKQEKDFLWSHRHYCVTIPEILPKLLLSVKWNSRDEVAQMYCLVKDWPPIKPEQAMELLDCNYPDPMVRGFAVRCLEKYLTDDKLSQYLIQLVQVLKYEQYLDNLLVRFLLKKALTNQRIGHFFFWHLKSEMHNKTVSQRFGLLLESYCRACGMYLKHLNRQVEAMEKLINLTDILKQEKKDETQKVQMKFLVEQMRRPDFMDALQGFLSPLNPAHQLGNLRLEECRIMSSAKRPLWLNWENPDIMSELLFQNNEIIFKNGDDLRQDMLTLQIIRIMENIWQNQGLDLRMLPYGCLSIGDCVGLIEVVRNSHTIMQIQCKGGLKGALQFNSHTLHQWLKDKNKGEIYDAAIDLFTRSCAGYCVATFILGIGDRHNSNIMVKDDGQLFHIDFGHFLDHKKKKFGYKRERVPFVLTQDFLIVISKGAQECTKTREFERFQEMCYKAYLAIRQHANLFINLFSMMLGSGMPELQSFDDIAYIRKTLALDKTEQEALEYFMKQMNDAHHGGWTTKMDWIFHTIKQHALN
Sequence of PKN1 (Q16512 whole entry): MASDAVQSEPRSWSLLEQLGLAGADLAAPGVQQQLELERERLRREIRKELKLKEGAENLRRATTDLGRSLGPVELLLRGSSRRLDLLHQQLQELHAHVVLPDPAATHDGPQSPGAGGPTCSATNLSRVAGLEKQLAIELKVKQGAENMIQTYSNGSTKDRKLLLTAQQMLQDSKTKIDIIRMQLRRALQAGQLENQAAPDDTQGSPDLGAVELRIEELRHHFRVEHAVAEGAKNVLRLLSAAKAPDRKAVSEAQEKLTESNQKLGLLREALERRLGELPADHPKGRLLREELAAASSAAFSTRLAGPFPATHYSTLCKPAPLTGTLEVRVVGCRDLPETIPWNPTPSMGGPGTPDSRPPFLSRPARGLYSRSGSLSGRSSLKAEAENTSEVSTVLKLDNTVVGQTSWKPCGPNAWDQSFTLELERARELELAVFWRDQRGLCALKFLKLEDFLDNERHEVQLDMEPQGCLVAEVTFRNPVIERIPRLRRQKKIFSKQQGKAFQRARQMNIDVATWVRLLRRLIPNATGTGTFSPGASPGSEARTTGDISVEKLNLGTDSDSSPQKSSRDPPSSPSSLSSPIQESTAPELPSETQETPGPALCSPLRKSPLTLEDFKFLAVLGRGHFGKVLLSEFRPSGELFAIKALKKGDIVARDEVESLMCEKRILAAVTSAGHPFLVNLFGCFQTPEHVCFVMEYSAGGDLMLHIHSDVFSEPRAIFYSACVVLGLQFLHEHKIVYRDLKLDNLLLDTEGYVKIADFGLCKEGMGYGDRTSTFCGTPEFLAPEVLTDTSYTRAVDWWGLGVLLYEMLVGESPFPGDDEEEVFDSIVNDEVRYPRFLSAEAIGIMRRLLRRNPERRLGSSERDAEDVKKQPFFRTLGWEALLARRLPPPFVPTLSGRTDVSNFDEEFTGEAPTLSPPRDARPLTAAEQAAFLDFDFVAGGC
Sequence of CSNK2A2 (P19784 whole entry): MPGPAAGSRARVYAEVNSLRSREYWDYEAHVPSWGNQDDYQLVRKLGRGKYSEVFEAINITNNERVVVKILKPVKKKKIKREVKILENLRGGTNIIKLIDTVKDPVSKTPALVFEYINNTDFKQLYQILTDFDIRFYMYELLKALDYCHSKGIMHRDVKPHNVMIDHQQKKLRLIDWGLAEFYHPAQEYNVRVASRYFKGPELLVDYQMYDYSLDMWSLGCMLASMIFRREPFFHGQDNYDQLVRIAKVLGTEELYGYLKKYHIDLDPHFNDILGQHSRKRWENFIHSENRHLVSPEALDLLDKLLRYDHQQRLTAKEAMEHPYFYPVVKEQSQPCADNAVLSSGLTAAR
T2 sequence (P11802 whole entry): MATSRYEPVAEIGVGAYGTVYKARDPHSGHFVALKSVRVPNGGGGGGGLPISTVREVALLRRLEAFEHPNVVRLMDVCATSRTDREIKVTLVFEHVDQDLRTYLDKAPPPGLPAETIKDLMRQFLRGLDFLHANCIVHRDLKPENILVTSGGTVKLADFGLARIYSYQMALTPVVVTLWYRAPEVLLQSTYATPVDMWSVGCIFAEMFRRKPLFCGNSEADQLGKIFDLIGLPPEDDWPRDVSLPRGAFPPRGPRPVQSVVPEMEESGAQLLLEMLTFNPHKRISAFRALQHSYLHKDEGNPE
T2 sequence (P24385 whole entry partner): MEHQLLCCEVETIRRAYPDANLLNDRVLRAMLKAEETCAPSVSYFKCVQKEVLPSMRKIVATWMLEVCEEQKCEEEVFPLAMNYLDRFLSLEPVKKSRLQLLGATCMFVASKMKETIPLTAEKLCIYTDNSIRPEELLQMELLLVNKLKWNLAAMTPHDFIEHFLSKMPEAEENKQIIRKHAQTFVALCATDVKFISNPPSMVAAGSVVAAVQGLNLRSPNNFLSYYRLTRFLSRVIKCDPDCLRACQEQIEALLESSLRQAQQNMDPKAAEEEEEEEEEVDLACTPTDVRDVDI

NC(=O)c1cccc2cn(-c3ccc([C@@H]4CCCNC4)cc3)nc12 [Niraparib]
percent of control binding at 10 µM (PKN1; [1]): 69%
percent of control binding at 10 µM (HUNK; [1]): 98%
percent of control binding at 10 µM (CDK4-cyclinD1; [1]): 82%
percent of control binding at 10 µM (CSNK2A2; [1]): 1.2%
percent of control binding at 10 µM (PKAC-alpha; [1]): 86%
percent of control binding at 10 µM (PIK3CA(E545K); [1]): 95%
percent of control binding at 10 µM (FLT3(D835H); [1]): 83%
percent of control binding at 10 µM (SgK110; [1]): 84%

O=C(c1cc(Cc2n[nH]c(=O)c3ccccc23)ccc1F)N1CCN(C(=O)C2CC2)CC1 [Olaparib]
percent of control binding at 10 µM (PKN1; [2]): 83%
percent of control binding at 10 µM (HUNK; [2]): 88%
percent of control binding at 10 µM (CDK4-cyclinD1; [2]): 80%
percent of control binding at 10 µM (CSNK2A2; [2]): 83%
percent of control binding at 10 µM (PKAC-alpha; [2]): 100%
percent of control binding at 10 µM (PIK3CA(E545K); [2]): 86%
percent of control binding at 10 µM (FLT3(D835H); [2]): 91%
percent of control binding at 10 µM (SgK110; [2]): 63%

CNCc1ccc(-c2[nH]c3cc(F)cc4c3c2CCNC4=O)cc1 [Rucaparib]
percent of control binding at 10 µM (PKN1; [3]): 78%
percent of control binding at 10 µM (HUNK; [3]): 100%
percent of control binding at 10 µM (CDK4-cyclinD1; [3]): 25%
percent of control binding at 10 µM (CSNK2A2; [3]): 2%
percent of control binding at 10 µM (PKAC-alpha; [3]): 100%
percent of control binding at 10 µM (PIK3CA(E545K); [3]): 79%
Rucaparib / %Ctrl @ 10000nM (FLT3(D835H); binding competition, % of control): 42%
percent of control binding at 10 µM (SgK110; [3]): 63%

Cn1ncnc1[C@H]1c2n[nH]c(=O)c3cc(F)cc(c23)N[C@@H]1c1ccc(F)cc1 [Talazoparib]
percent of control binding at 10 µM (PKN1; [4]): 74%
percent of control binding at 10 µM (HUNK; [4]): 100%
percent of control binding at 10 µM (CDK4-cyclinD1; [4]): 70%
percent of control binding at 10 µM (CSNK2A2; [4]): 77%
percent of control binding at 10 µM (PKAC-alpha; [4]): 88%
percent of control binding at 10 µM (PIK3CA(E545K); [4]): 56%
percent of control binding at 10 µM (FLT3(D835H); [4]): 89%
percent of control binding at 10 µM (SgK110; [4]): 100%
